Measurements as given in article PMC3111206, “Phase I study of PD 0332991, a cyclin-dependent kinase inhibitor, administered in 3-week cycles (Schedule 2/1)” (British Journal of Cancer, 2011).
Entries after “also recorded” stand apart in the source; their conditions may differ.

Assays:
[1] = tested on: platelets; experiment: Pharmacodynamic Emax modelling of change in platelets vs individual AUC; type: in vivo; settings: Homo sapiens, Platelet; cycle 1, vs individual AUC, 30 patients; s.e. 16.9; 18.3% CV; read-out: Emax for platelets (change from baseline)
Description: (§1) To document the course of changes in absolute neutrophil count (ANC) and platelets over time during the first two cycles of treatment, an exploratory analysis of data available from the weekly safety laboratory tests was carried out. Possible relationships between PD 0332991 exposure and changes in (i) ANC and (ii) platelets were assessed further by fitting a simple model (without baseline) to determine the maximum […] (Emax).

[2] = Safety assessment: adverse events and haematological toxicity graded by NCI CTCAE v3.0; type: in vivo, human; settings: for Treatment-related Alopecia, All grades / Treatment-related Alopecia, Grade 3 / Treatment-related Anorexia, All grades / Treatment-related Anorexia, Grade 3 / Treatment-related Chills, All grades / Treatment-related Chills, Grade 3 / Treatment-related Constipation, All grades / Treatment-related Constipation, Grade 3 / Treatment-related Cough, All grades / Treatment-related Cough, Grade 3 / Treatment-related Diarrhoea, All grades / Treatment-related Diarrhoea, Grade 3 / Treatment-related Dyspnea, All grades / Treatment-related Dyspnea, Grade 3 / Treatment-related Epistaxis, All grades / Treatment-related Epistaxis, Grade 3 / Treatment-related Fatigue, All grades / Treatment-related Fatigue, Grade 3 / Treatment-related Flatulence, All grades / Treatment-related Flatulence, Grade 3 / Treatment-related Mucosal inflammation, All grades / Treatment-related Mucosal inflammation, Grade 3 / Treatment-related Muscular weakness, All grades / Treatment-related Muscular weakness, Grade 3 / Treatment-related Nausea, All grades / Treatment-related Nausea, Grade 3 / Treatment-related Peripheral oedema, All grades / Treatment-related Peripheral oedema, Grade 3 / Treatment-related Pyrexia, All grades / Treatment-related Pyrexia, Grade 3 / Treatment-related Rash, All grades / Treatment-related Rash, Grade 3 / Treatment-related Vomiting, All grades / Treatment-related Vomiting, Grade 3: all cohorts combined (N=33)
Description: Safety was assessed at baseline, at regular intervals throughout the study, and within 1 week following treatment discontinuation by recording AEs, haematological and biochemical parameters, and physical status (including ECOG performance status). Adverse event severity was graded using the National Cancer Institute Common Terminology Criteria for Adverse Events, version 3.0 ([Trotti et al, 2003]). Triplicate electrocardiograms (ECGs) ∼2 min apart were taken at baseline, 3 h post-dose on days 1, 8 and 15 of cycle 1, and on day 15 of subsequent cycles for up to six cycles.

[3] = tested on: absolute neutrophil count (ANC); experiment: Pharmacodynamic Emax modelling of change in ANC vs individual AUC; type: in vivo; settings: Homo sapiens, cycle 1, vs individual AUC, 30 patients, s.e. 11.2, 12.6% CV, read-out: Emax for ANC (change from baseline)
Description: as §1

[4] = tested on: Rb-negative tumours; design: method as in Fry et al, 2004; settings: in vivo; ref Fry et al, 2004; cited from earlier work
[5] = 200 mg QD, cycle 1, 20 patients
[6] = maximum toxicity grade, worsened vs baseline, all cohorts and all cycles (N=33)

CC(=O)c1c(C)c2cnc(Nc3ccc(N4CCNCC4)cn3)nc2n(C2CCCC2)c1=O [PD 0332991]
Emax [1]: 92.2% | Neutropenia, NCICTCAE Grade 0 [2, 5]: 11 n | Neutropenia, NCICTCAE Grade 1 [2, 5]: 0 n | Neutropenia, NCICTCAE Grade 2 [2, 5]: 3 n | Neutropenia, NCICTCAE Grade 3 [2, 5]: 6 n | Neutropenia, NCICTCAE Grade 4 [2, 5]: 0 n | Patients with treatment interrupted following treatment-related AEs ([2]; 200 mg QD, during cycle 1): eight | Neutropenia, NCICTCAE Grade 0 ([2]; 225 mg QD, cycle 1, 6 patients): 3 n | Neutropenia, NCICTCAE Grade 1 ([2]; 225 mg QD, cycle 1, 6 patients): 0 n | Neutropenia, NCICTCAE Grade 2 ([2]; 225 mg QD, cycle 1, 6 patients): 0 n | Neutropenia, NCICTCAE Grade 3 ([2]; 225 mg QD, cycle 1, 6 patients): 2 n | Neutropenia, NCICTCAE Grade 4 ([2]; 225 mg QD, cycle 1, 6 patients): 1 n | Treatment-related Alopecia, All grades ([2]; After cycle 1): 2 (6) n (%) | Treatment-related Alopecia, Grade 3 ([2]; After cycle 1): 0 n (%) | Treatment-related Anorexia, All grades ([2]; After cycle 1): 3 (9) n (%) | Treatment-related Anorexia, Grade 3 ([2]; After cycle 1): 0 n (%) | Treatment-related Chills, All grades ([2]; After cycle 1): 2 (6) n (%) | Treatment-related Chills, Grade 3 ([2]; After cycle 1): 0 n (%) | Treatment-related Constipation, All grades ([2]; After cycle 1): 3 (9) n (%) | Treatment-related Constipation, Grade 3 ([2]; After cycle 1): 0 n (%) | Treatment-related Cough, All grades ([2]; After cycle 1): 2 (6) n (%) | Treatment-related Cough, Grade 3 ([2]; After cycle 1): 0 n (%) | Treatment-related Diarrhoea, All grades ([2]; After cycle 1): 10 (30) n (%) | Treatment-related Diarrhoea, Grade 3 ([2]; After cycle 1): 0 n (%) | Treatment-related Dyspnea, All grades ([2]; After cycle 1): 1 (3) n (%) | Treatment-related Dyspnea, Grade 3 ([2]; After cycle 1): 0 n (%) | Treatment-related Epistaxis, All grades ([2]; After cycle 1): 4 (12) n (%) | Treatment-related Epistaxis, Grade 3 ([2]; After cycle 1): 0 n (%) | Treatment-related Fatigue, All grades ([2]; After cycle 1): 10 (30) n (%) | Treatment-related Fatigue, Grade 3 ([2]; After cycle 1): 1 (3) n (%) | Treatment-related Flatulence, All grades ([2]; After cycle 1): 3 (9) n (%) | Treatment-related Flatulence, Grade 3 ([2]; After cycle 1): 0 n (%) | Treatment-related Mucosal inflammation, All grades ([2]; After cycle 1): 3 (9) n (%) | Treatment-related Mucosal inflammation, Grade 3 ([2]; After cycle 1): 0 n (%) | Treatment-related Muscular weakness, All grades ([2]; After cycle 1): 2 (6) n (%) | Treatment-related Muscular weakness, Grade 3 ([2]; After cycle 1): 0 n (%) | Treatment-related Nausea, All grades ([2]; After cycle 1): 5 (15) n (%) | Treatment-related Nausea, Grade 3 ([2]; After cycle 1): 1 (3) n (%) | Treatment-related Peripheral oedema, All grades ([2]; After cycle 1): 2 (6) n (%) | Treatment-related Peripheral oedema, Grade 3 ([2]; After cycle 1): 0 n (%) | Treatment-related Pyrexia, All grades ([2]; After cycle 1): 2 (6) n (%) | Treatment-related Pyrexia, Grade 3 ([2]; After cycle 1): 0 n (%) | Treatment-related Rash, All grades ([2]; After cycle 1): 2 (6) n (%) | Treatment-related Rash, Grade 3 ([2]; After cycle 1): 0 n (%) | Treatment-related Vomiting, All grades ([2]; After cycle 1): 2 (6) n (%) | Treatment-related Vomiting, Grade 3 ([2]; After cycle 1): 1 (3) n (%) | Treatment-related Alopecia, All grades ([2]; Cycle 1): 0 n (%) | Treatment-related Alopecia, Grade 3 ([2]; Cycle 1): 0 n (%) | Treatment-related Anorexia, All grades ([2]; Cycle 1): 1 (3) n (%) | Treatment-related Anorexia, Grade 3 ([2]; Cycle 1): 0 n (%) | Treatment-related Chills, All grades ([2]; Cycle 1): 0 n (%) | Treatment-related Chills, Grade 3 ([2]; Cycle 1): 0 n (%) | Treatment-related Constipation, All grades ([2]; Cycle 1): 4 (12) n (%) | Treatment-related Constipation, Grade 3 ([2]; Cycle 1): 0 n (%) | Treatment-related Cough, All grades ([2]; Cycle 1): 0 n (%) | Treatment-related Cough, Grade 3 ([2]; Cycle 1): 0 n (%) | Treatment-related Diarrhoea, All grades ([2]; Cycle 1): 6 (18) n (%) | Treatment-related Diarrhoea, Grade 3 ([2]; Cycle 1): 0 n (%) | Treatment-related Dyspnea, All grades ([2]; Cycle 1): 3 (9) n (%) | Treatment-related Dyspnea, Grade 3 ([2]; Cycle 1): 0 n (%) | Treatment-related Epistaxis, All grades ([2]; Cycle 1): 0 n (%) | Treatment-related Epistaxis, Grade 3 ([2]; Cycle 1): 0 n (%) | Treatment-related Fatigue, All grades ([2]; Cycle 1): 11 (33) n (%) | Treatment-related Fatigue, Grade 3 ([2]; Cycle 1): 0 n (%) | Treatment-related Flatulence, All grades ([2]; Cycle 1): 0 n (%) | Treatment-related Flatulence, Grade 3 ([2]; Cycle 1): 0 n (%) | Treatment-related Mucosal inflammation, All grades ([2]; Cycle 1): 0 n (%) | Treatment-related Mucosal inflammation, Grade 3 ([2]; Cycle 1): 0 n (%) | Treatment-related Muscular weakness, All grades ([2]; Cycle 1): 0 n (%) | Treatment-related Muscular weakness, Grade 3 ([2]; Cycle 1): 0 n (%) | Treatment-related Nausea, All grades ([2]; Cycle 1): 10 (30) n (%) | Treatment-related Nausea, Grade 3 ([2]; Cycle 1): 0 n (%) | Treatment-related Peripheral oedema, All grades ([2]; Cycle 1): 3 (9) n (%) | Treatment-related Peripheral oedema, Grade 3 ([2]; Cycle 1): 0 n (%) | Treatment-related Pyrexia, All grades ([2]; Cycle 1): 1 (3) n (%) | Treatment-related Pyrexia, Grade 3 ([2]; Cycle 1): 0 n (%) | Treatment-related Rash, All grades ([2]; Cycle 1): 4 (12) n (%) | Treatment-related Rash, Grade 3 ([2]; Cycle 1): 0 n (%) | Treatment-related Vomiting, All grades ([2]; Cycle 1): 2 (6) n (%) | Treatment-related Vomiting, Grade 3 ([2]; Cycle 1): 0 n (%) | Patients with treatment interrupted following treatment-related AEs ([2]; after cycle 1 (two 200-mg QD, one 225-mg QD)): three | Diarrhoea incidence ([2]; after cycle 1, all cohorts): 30% | Epistaxis incidence ([2]; after cycle 1, all cohorts): 12% | Fatigue incidence ([2]; after cycle 1, all cohorts): 30% | Nausea incidence ([2]; after cycle 1, all cohorts): 15% | Grade 1/2 leukopenia and thrombocytopenia ([2]; all cohorts): 58–67 % of patients | Grade 3/4 leukopenia and neutropenia ([2]; all cohorts): 20–25 % of patients | Patients requiring dose reductions ([2]; all cohorts): Five | Patients who discontinued treatment permanently because of treatment-related AEs ([2]; all cohorts): No patient | Treatment-related grade 4 non-haematological AEs ([2]; all cohorts): no treatment-related grade 4 non-haematological AEs; also recorded: no treatment-related grade 4 toxicity | Grade 3 or 4 leukopenia ([2]; all cohorts and cycles): 21% | Grade 3 or 4 lymphopenia ([2]; all cohorts and cycles): 36% | Grade 3 or 4 neutropenia ([2]; all cohorts and cycles): 24% | Grade 3 or 4 thrombocytopenia ([2]; all cohorts and cycles): 9% | Grade 3 or 4 anaemia ([2]; all cohorts and cycles, a single patient): 3% | Number of grade 3 non-haematological AEs ([2]; all cohorts, all after the first cycle (fatigue, hyperglycaemia, hyponatremia, nausea, vomiting; n=1 each)): Five | Constipation incidence ([2]; during cycle 1, all cohorts): 12% | Diarrhoea incidence ([2]; during cycle 1, all cohorts): 18% | Fatigue incidence ([2]; during cycle 1, all cohorts): 33% | Nausea incidence ([2]; during cycle 1, all cohorts): 30% | Rash incidence ([2]; during cycle 1, all cohorts): 12% | Anaemia, Grade 1/2 [2, 6]: 21 (64) n (%) | Anaemia, Grade 3/4 [2, 6]: 1 (3) n (%) | Leukopenia, Grade 1/2 [2, 6]: 22 (67) n (%) | Leukopenia, Grade 3/4 [2, 6]: 7 (21) n (%) | Lymphopenia, Grade 1/2 [2, 6]: 8 (24) n (%) | Lymphopenia, Grade 3/4 [2, 6]: 12 (36) n (%) | Neutropenia, Grade 1/2 [2, 6]: 14 (42) n (%) | Neutropenia, Grade 3/4 [2, 6]: 8 (24) n (%) | Thrombocytopenia, Grade 1/2 [2, 6]: 19 (58) n (%) | Thrombocytopenia, Grade 3/4 [2, 6]: 3 (9) n (%) | Emax [3]: 88.6% | Activity against Rb-negative tumours [4]: without activity
